Values quoted from earlier work, collected in patent US20180256623A1, “COMPOSITIONS AND METHOD FOR REGULATING ADIPOSE TISSUE LIPOLYSIS, INSULIN-RESISTANCE, AND HYPERGLYCEMIA” (University of Virginia Patent Foundation, priority 2015, published 2018).
pIC50: −log10 of the molar value.

Target: T1, HSL (Homo sapiens, UniProt Q05469)
T1 sequence (Q05469 1-1076): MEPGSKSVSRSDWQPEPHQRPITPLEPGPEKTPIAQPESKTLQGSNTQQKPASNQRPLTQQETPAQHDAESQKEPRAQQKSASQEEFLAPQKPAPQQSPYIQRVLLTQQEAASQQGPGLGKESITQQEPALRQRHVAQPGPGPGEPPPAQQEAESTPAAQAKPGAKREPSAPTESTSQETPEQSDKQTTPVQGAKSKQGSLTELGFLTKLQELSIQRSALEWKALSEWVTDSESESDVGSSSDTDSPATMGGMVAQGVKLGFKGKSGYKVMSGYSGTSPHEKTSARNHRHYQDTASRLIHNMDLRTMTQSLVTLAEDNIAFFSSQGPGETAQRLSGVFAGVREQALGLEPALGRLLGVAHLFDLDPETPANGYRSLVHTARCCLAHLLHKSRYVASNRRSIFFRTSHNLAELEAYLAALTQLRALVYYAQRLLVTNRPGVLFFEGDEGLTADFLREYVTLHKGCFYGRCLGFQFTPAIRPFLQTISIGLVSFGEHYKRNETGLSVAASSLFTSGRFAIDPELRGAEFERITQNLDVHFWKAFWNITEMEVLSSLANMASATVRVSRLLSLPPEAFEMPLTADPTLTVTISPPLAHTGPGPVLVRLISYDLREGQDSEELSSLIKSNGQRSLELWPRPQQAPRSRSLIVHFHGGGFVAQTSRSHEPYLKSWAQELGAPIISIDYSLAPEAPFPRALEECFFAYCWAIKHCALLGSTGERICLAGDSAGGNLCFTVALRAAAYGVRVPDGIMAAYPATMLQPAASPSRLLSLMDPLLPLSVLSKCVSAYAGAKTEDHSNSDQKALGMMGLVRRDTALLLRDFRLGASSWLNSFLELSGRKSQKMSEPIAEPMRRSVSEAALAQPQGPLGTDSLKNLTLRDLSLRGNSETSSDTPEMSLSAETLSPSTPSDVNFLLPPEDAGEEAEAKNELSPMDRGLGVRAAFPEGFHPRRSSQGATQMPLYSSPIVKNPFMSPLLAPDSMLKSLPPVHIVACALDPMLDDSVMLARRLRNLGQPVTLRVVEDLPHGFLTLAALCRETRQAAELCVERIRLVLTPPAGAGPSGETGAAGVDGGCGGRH
Conditions: Table 1, 4-substituted 5-(2H)-isoxazolones; means of three experiments; cited from earlier work

Going from Cc1c(C2CCSCC2)c(=O)on1C(=O)N1CCCCC1 [Compound 15] to Cc1c(-c2ccccc2)c(=O)on1C(=O)N1CCCCC1 [Compound 19], the pIC50 rises from 7.26 to 7.77 (0.51 log units).

Same assay, conditions: Table 2, acyclic ureas; means of three experiments; Na = not active; cited from earlier work

Cc1c(C(C)C)c(=O)on1C(=O)NC(C)(C)C [Compound 20] and Cc1c(C(C)C)c(=O)on1C(=O)Nc1ccccc1 [Compound 21] cannot be ordered by pIC50: under 6.00 for the first, under 6.00 for the second.

Same assay, conditions: Table 3, cyclic amine-derived ureas; means of three experiments; Na = not active; cited from earlier work

Cc1c(C(C)C)c(=O)on1C(=O)N1CCc2ccccc21 [Compound 44] and Cc1c(C(C)C)c(=O)on1C(=O)N1CCNCC1 [Compound 46] cannot be ordered by pIC50: under 6.00 for the first, under 6.00 for the second.

Same assay, conditions: piperidine derivatives; means of three experiments; Na = not active; cited from earlier work

Cc1c(C(C)C)c(=O)on1C(=O)N1CCC(C(=O)N(C)C)CC1 [Compound 84] and Cc1nnc(C2CCN(C(=O)n3oc(=O)c(C(C)C)c3C)CC2)o1 [Compound 86] cannot be ordered by pIC50: under 6.00 for the first, under 6.00 for the second.

Cc1c(C(C)C)c(=O)on1C(=O)N1CCC(C#N)(c2ccccc2)CC1 [Compound 91] and Cc1c(C(C)C)c(=O)on1C(=O)N1CCC(O)(c2ccccc2)CC1 [Compound 92] cannot be ordered by pIC50: under 6.00 for the first, under 6.00 for the second.

System: 3T3-L1
Conditions: Table 1, 4-substituted 5-(2H)-isoxazolones; means of three experiments; cited from earlier work

Cc1c(Sc2ccc(Cl)cc2)c(=O)on1C(=O)N1CCCCC1 [Compound 1] and Cc1c(Sc2ccccc2)c(=O)on1C(=O)N1CCCCC1 [Compound 3] are within 0.2 log units of each other in pIC50: 6.87 for the first, 6.72 for the second.

Compared with Cc1c(Cc2ccccc2)c(=O)on1C(=O)N1CCCCC1 [Compound 4], Cc1c(CCOc2ccccc2)c(=O)on1C(=O)N1CCCCC1 [Compound 17] is 1.65 log units higher in pIC50: 7.05 for the first, 8.70 for the second.

Going from Cc1c(C)n(C(=O)N2CCCCC2)oc1=O [Compound 5] to CCc1c(C)n(C(=O)N2CCCCC2)oc1=O [Compound 6], the pIC50 rises from 6.18 to 6.49 (0.31 log units).

Going from Cc1c(C(C)C)c(=O)on1C(=O)N1CCCCC1 [Compound 8] to Cc1c(CC(C)C)c(=O)on1C(=O)N1CCCCC1 [Compound 9], the pIC50 rises from 7.12 to 7.49 (0.37 log units). The second is the more potent here.

Going from Cc1c(C(C)(C)C)c(=O)on1C(=O)N1CCCCC1 [Compound 10] to COCCc1c(C)n(C(=O)N2CCCCC2)oc1=O [Compound 16], the pIC50 falls from 7.05 to 6.74 (0.31 log units). The first is the more potent here.

Cc1c(C2CCCC2)c(=O)on1C(=O)N1CCCCC1 [Compound 11] and Cc1c(C2CCCCC2)c(=O)on1C(=O)N1CCCCC1 [Compound 12] are within 0.2 log units of each other in pIC50: 7.66 for the first, 7.57 for the second.

First: Cc1c(C2CCOCC2)c(=O)on1C(=O)N1CCCCC1 [Compound 13]
Second: Cc1c(C2CCSCC2)c(=O)on1C(=O)N1CCCCC1 [Compound 14]
The pIC50 of the first is 0.31 log units lower: 6.70 for the first, 7.01 for the second. The second is the more potent here.

Going from Cc1c(C2CCSCC2)c(=O)on1C(=O)N1CCCCC1 [Compound 15] to Cc1c(-c2ccccc2)c(=O)on1C(=O)N1CCCCC1 [Compound 19], the pIC50 rises from 6.42 to 6.82 (0.40 log units). The second is the more potent here.

Same assay, conditions: Table 2, acyclic ureas; means of three experiments; Na = not active; cited from earlier work

First: Cc1c(C(C)C)c(=O)on1C(=O)N(C)C1CCCCC1 [Compound 24]
Second: CCN(CC)C(=O)n1oc(=O)c(C(C)C)c1C [Compound 39]
The pIC50 of the first is lower: under 6.00 for the first, 6.22 for the second. The second is the more potent here.

Compared with Cc1c(C(C)C)c(=O)on1C(=O)N(C)Cc1ccccc1 [Compound 25], Cc1c(C(C)C)c(=O)on1C(=O)N(C)CCc1ccccc1 [Compound 33] is 0.65 log units lower in pIC50: 7.17 for the first, 6.52 for the second. The first is the more potent here.

First: Cc1c(C(C)C)c(=O)on1C(=O)N(C)Cc1ccccc1F [Compound 26]
Second: Cc1c(C(C)C)c(=O)on1C(=O)N(C)Cc1ccc(F)cc1 [Compound 28]
The pIC50 of the first is 2.00 log units higher: 8.00 for the first, 6.00 for the second.

Going from Cc1c(C(C)C)c(=O)on1C(=O)N(C)Cc1ccco1 [Compound 30] to Cc1c(C(C)C)c(=O)on1C(=O)N(C)c1ccc(Cl)cc1 [Compound 37], the pIC50 falls from 8.05 to under 6.00.

Same assay, conditions: Table 3, cyclic amine-derived ureas; means of three experiments; Na = not active; cited from earlier work

Compared with Cc1c(C(C)C)c(=O)on1C(=O)N1CCCCC1 [Compound 8], Cc1c(C(C)C)c(=O)on1C(=O)N1CCCCCC1 [Compound 55] is 0.45 log units lower in pIC50: 7.12 for the first, 6.67 for the second. The first is the more potent here.

First: Cc1c(C(C)C)c(=O)on1C(=O)N1CCCC1 [Compound 41]
Second: Cc1c(C(C)C)c(=O)on1C(=O)N1CCOCC1 [Compound 53]
The pIC50 of the first is higher: 7.55 for the first, under 6.00 for the second. The first is the more potent here.

Going from Cc1c(C(C)C)c(=O)on1C(=O)N1CC=CC1 [Compound 43] to Cc1c(C(C)C)c(=O)on1C(=O)N1CCSCC1 [Compound 54], the pIC50 falls from 6.92 to 6.54 (0.38 log units). The first is the more potent here.

Compared with Cc1c(C(C)C)c(=O)on1C(=O)N1CCN(C)CC1 [Compound 47], Cc1c(C(C)C)c(=O)on1C(=O)N1CCN(c2ccccc2)CC1 [Compound 49] is higher in pIC50: under 6.00 for the first, 7.57 for the second.

For Cc1c(C(C)C)c(=O)on1C(=O)N1CCN(Cc2ccccc2)CC1 [Compound 48], the pIC50 is listed as 7.25.

Same assay, conditions: piperidine derivatives; means of three experiments; Na = not active; cited from earlier work

First: Cc1c(C(C)C)c(=O)on1C(=O)N1CCCCC1 [Compound 8]
Second: Cc1c(C(C)C)c(=O)on1C(=O)N1CCC[C@@H](C)C1 [Compound 58]
The pIC50 of the first is 0.39 log units higher: 7.12 for the first, 6.73 for the second. The first is the more potent here.

Going from Cc1c(C(C)C)c(=O)on1C(=O)N1CCCCC1C (centres unmarked) [Compound 57] to Cc1c(C(C)C)c(=O)on1C(=O)N1CC(C)CCC1C (centres unmarked) [Compound 88], the pIC50 falls from 6.40 to under 6.00. The first is the more potent here.

Cc1c(C(C)C)c(=O)on1C(=O)N1CCC[C@H](C)C1 [Compound 59] and Cc1c(C(C)C)c(=O)on1C(=O)N1CCC(C)CC1 [Compound 63] are within 0.2 log units of each other in pIC50: 7.55 for the first, 7.40 for the second.

First: Cc1c(C(C)C)c(=O)on1C(=O)N1CCCC(CO)C1 (centres unmarked) [Compound 60]
Second: CCOC(=O)C1CCCN(C(=O)n2oc(=O)c(C(C)C)c2C)C1 (centres unmarked) [Compound 62]
The pIC50 of the first is 0.67 log units lower: 6.10 for the first, 6.77 for the second. The second is the more potent here.

Compared with CCCCc1c(C)n(C(=O)N2CCC(C)CC2)oc1=O [Compound 64], CCOCCc1c(C)n(C(=O)N2CCC(C)CC2)oc1=O [Compound 67] is 0.30 log units lower in pIC50: 8.00 for the first, 7.70 for the second.

Cc1c(C2CCCCC2)c(=O)on1C(=O)N1CCC(C)CC1 [Compound 66] and Cc1c(C2CCSCC2)c(=O)on1C(=O)N1CCC(C)CC1 [Compound 68] are within 0.2 log units of each other in pIC50: 7.70 for the first, 7.62 for the second.

First: Cc1c(C(C)C)c(=O)on1C(=O)N1CCC(c2ccccc2)CC1 [Compound 70]
Second: Cc1c(C(C)C)c(=O)on1C(=O)N1CCC(c2cccc(F)c2)CC1 [Compound 74]
The pIC50 of the first is 0.92 log units lower: 7.48 for the first, 8.40 for the second.

Compared with Cc1c(C2CCCC2)c(=O)on1C(=O)N1CCC(c2ccccc2)CC1 [Compound 72], COCCc1c(C)n(C(=O)N2CCC(c3ccccc3)CC2)oc1=O [Compound 73] is 0.20 log units higher in pIC50: 8.10 for the first, 8.30 for the second. The second is the more potent here.

Going from COCCc1c(C)n(C(=O)N2CCC(c3cccc(F)c3)CC2)oc1=O [Compound 75] to COCCc1c(C)n(C(=O)N2CCC(c3cccc(C)c3)CC2)oc1=O [Compound 76], the pIC50 falls from 9.70 to 8.40 (1.30 log units). The first is the more potent here.

Going from Cc1ccc(C2CCN(C(=O)n3oc(=O)c(C(C)C)c3C)CC2)cc1 [Compound 77] to Cc1c(C(C)C)c(=O)on1C(=O)N1CCC(=O)CC1 [Compound 83], the pIC50 rises from 6.61 to 6.82 (0.21 log units). The second is the more potent here.

Compared with Cc1c(C(C)C)c(=O)on1C(=O)N1CC(C)CC(C)C1 (centres unmarked) [Compound 90], Cc1c(C(C)C)c(=O)on1C(=O)N1CCC(O)(c2ccccc2)CC1 [Compound 92] is lower in pIC50: 6.85 for the first, under 6.00 for the second. The first is the more potent here.
